Source: patent US8859502B2, “Therapy for MLL-rearranged leukemia” (Celgene Corporation, priority 2010, dated 2014)

Experiments:
[1] = test system: t(4;11)-positive ALL cells; assay type: cell-based, human; details: for therapeutic index and specificity towards t(4;11)-positive ALL cells: SEM, RS4;11, MLL-AF4 patient cells versus normal bone marrows, FIG. 6
From the text: VPA, D. romidepsin, E. MS-275. Error bars represent standard errors of the mean (SEM).

[2] = test system: SEM cell line; assay: Proto-oncogene mRNA expression by quantitative real-time PCR after exposure to HDAC inhibitors, SEM; assay type: cell-based, human
Method: (§1) FIGS. 8A, 8B, 8C, 8D, 8E, 8F and 8G show relative proto-oncogene mRNA expression after exposure to HDAC inhibitors in SEM cell line. FIGS. 8AA, 8BB, 8CC, 8DD, 8EE, 8FF and 8GG show relative proto-oncogene mRNA expression after exposure to HDAC inhibitors in RS4;11 cell line. mRNA expression levels of the proto-oncogenes A. RAN, B. SET, C. […] For RUNX1, PARK7, DIAPH1 and HOXA9 data after 24 hours exposure are presented as well (hatch fill). Expression levels in SEM or RS4;11 were set to 100%.
(§2) Total RNA was reverse transcribed and the obtained cDNA was used to quantify mRNA expression by using quantitative real-time PCR analysis as described in Stam et al., Haematologica 92(11):1565-1568, 2007). […] Per experiment, samples were analyzed in duplicate and all experiments were conducted twice. […]
(§3) To explore the mechanism of action of HDAC inhibitors on induced leukemic cell death in MLL-rearranged ALL, the t(4;11)-positive ALL cell lines SEM and RS4;11 were exposed to various concentrations of TSA, SAHA, VPA, MS-275 and romidepsin for 6, 24 or 48 hours. During these exposures, cell viability was monitored by trypan blue exclusion (FIG. 7). Quantitative real-time PCR was used to determine the mRNA expression levels of MYC, SET, RUNXI, RAN, HOXA9, DIAPHI and PARK7 in the cell lines SEM and RS4;11 during exposure to the different HDAC inhibitors. […]

[3] = test system: RS4;11 cell line; assay: Proto-oncogene mRNA expression by quantitative real-time PCR after exposure to HDAC inhibitors, RS4;11; assay type: cell-based, human; details: RS4;11, mRNA by quantitative real-time PCR
Method: as §1, §2, §3

[4] = test system: healthy hematopoietic bone marrow cells

| Structure (SMILES) | therapeutic index and specificity towards t(4;11)-positive ALL cells [1] | expression of the selected proto-oncogenes [2] | expression of the selected proto-oncogenes [3] | in vitro cytotoxicity on the leukemic cell population [1] | effect on healthy hematopoietic bone marrow cells [4] |
| --- | --- | --- | --- | --- | --- |
| Nc1ccccc1NC(=O)c1ccc(CNC(=O)OCc2cccnc2)cc1 [MS-275] | high therapeutic index and a preferred specificity towards targeting t(4;11)-positive ALL cells | – | – | – | – |
| O=C(CCCCCCC(=O)Nc1ccccc1)NO [Vorinostat] | – | consistently repressed most of the selected proto-oncogenes | consistently repressed most of the selected proto-oncogenes | – | – |
| C/C=C1\NC(=O)[C@H]2CSSCC/C=C/[C@H](CC(=O)N[C@H](C(C)C)C(=O)N2)OC(=O)[C@H](C(C)C)NC1=O [romidepsin, (1S,4S,7Z,10S,16E,21R)-7-ethylidene-4,21-bis(1-methylethyl)-2-oxa-12,13-dithia-5,8,20,23-tetrazabicyclo[8.7.6]tricos-16-ene-3,6,9,19,22-pentone] | high therapeutic index and a preferred specificity towards targeting t(4;11)-positive ALL cells | – | – | – | – |
| CC(/C=C/C(=O)NO)=C\[C@@H](C)C(=O)c1ccc(N(C)C)cc1 [trichostatin A] | high therapeutic index and a preferred specificity towards targeting t(4;11)-positive ALL cells | consistently repressed most of the selected proto-oncogenes | consistently repressed most of the selected proto-oncogenes | consistent eradication of the entire leukemic cell population | harmless for healthy hematopoietic bone marrow cells |
